Experimental data as given in BindingDB's records for doi:10.1021/jm00069a011 (Boehringer Mannheim, 1993).

Target: T1, Gag-Pol polyprotein [588-1027]/[588-1147] (Human immunodeficiency virus 1, UniProt P04585)
T1 construct: 588-1027; 588-1147
Test: HIV-1 RT Assay
Settings: not given

First: C[C@@H]1CN2C(=O)c3ccccc3[C@@]2(c2ccccc2)O1 [(2R,9bR)-2-methyl-9b-phenyl-2H,3H,5H,9bH-isoindolo[1,2-b][1,3]oxazol-5-one]
Second: C[C@H]1CN2C(=O)c3ccccc3[C@@]2(c2ccccc2)O1 [(2S,9bR)-2-methyl-9b-phenyl-2H,3H,5H,9bH-isoindolo[1,2-b][1,3]oxazol-5-one]
The IC50 of the first is lower: 37.6 µM for the first, over 100 µM for the second. The first is the more potent here.

Compared with `O=C1c2ccccc2C2(c3ccccc3)Sc3ccccc3N12` (stereo not drawn) [9-phenyl-8-thia-1-azatetracyclo[7.7.0.0^{2,7}.0^{10,15}]hexadeca-2,4,6,10,12,14-hexaen-16-one], `O=C(O)[C@H]1CSC2(c3ccccc3)c3ccccc3C(=O)N12` (stereo partly drawn) [(3S)-5-oxo-9b-phenyl-2H,3H,5H,9bH-isoindolo[1,2-b][1,3]thiazole-3-carboxylic acid] is higher in IC50: 40 µM for the first, over 100 µM for the second.

`O=C1c2ccccc2C2(c3ccccc3)NCCN12` (stereo not drawn) [9b-phenyl-1H,2H,3H,5H,9bH-imidazolidino[2,1-a]isoindol-5-one] and `O=C1c2ccccc2C2(c3ccccc3)NCCCN12` (stereo not drawn) [10b-phenyl-1H,2H,3H,4H,6H,10bH-pyrimido[2,1-a]isoindol-6-one] cannot be ordered by IC50: over 100 µM for the first, over 10 µM for the second.

`O=C1c2ccccc2C2(c3ccccc3)N1CCS2(=O)=O` (stereo not drawn) [9b-phenyl-2H,3H,5H,9bH-1,4000000-isoindolo[1,2-b][1,3]thiazole-1,1,5-trione] and `O=C1c2c(ccc3ccccc23)C2(c3ccccc3)SCCN12` (stereo not drawn) [11-phenyl-12-thia-15-azatetracyclo[8.6.0.0^{2,7}.0^{11,15}]hexadeca-1,3,5,7,9-pentaen-16-one] cannot be ordered by IC50: over 10 µM for the first, over 100 µM for the second.

`O=C1c2ncccc2C2(c3ccccc3)SCCN12` (stereo not drawn) [2-phenyl-3-thia-6,9-diazatricyclo[6.4.0.0^{2,6}]dodeca-1(12),8,10-trien-7-one] and `O=C1c2cnccc2C2(c3ccccc3)SCCN12` (stereo not drawn) [2-phenyl-3-thia-6,10-diazatricyclo[6.4.0.0^{2,6}]dodeca-1(12),8,10-trien-7-one] cannot be ordered by IC50: over 100 µM for the first, over 100 µM for the second.

Compound `O=C1c2ccccc2C2(c3ccncc3)SCCN12` (stereo not drawn) [9b-(pyridin-4-yl)-2H,3H,5H,9bH-isoindolo[1,2-b][1,3]thiazol-5-one] has an IC50 of over 30 µM.

Same assay, conditions: pH 7.7; 37 °C

`O=C1c2ccccc2C2(c3ccc[nH]3)SCCN12` (stereo not drawn) [9b-(1H-pyrrol-2-yl)-2H,3H,5H,9bH-isoindolo[1,2-b][1,3]thiazol-5-one] and `COc1ccc(C23SCCN2C(=O)c2ccccc23)cc1` (stereo not drawn) [9b-(4-methoxyphenyl)-2H,3H,5H,9bH-isoindolo[1,2-b][1,3]thiazol-5-one] cannot be ordered by IC50: over 100 µM for the first, over 30 µM for the second.
